Reference: patent publication US20230346827A1 (priority 2020, published 2023)

Test system: rats subjected to sTBI
Assay: sTBI rats, LMW-DS 1, 5, 15 mg/kg s.c. 30 min post-TBI: HPLC of brain energy metabolites, antioxidants, oxidative/nitrosative stress biomarkers (Example 4)
Type: in vivo, rat
Procedure: Male Wistar rats (n=160) of 300-350 g body weight were used in this study. They were fed with standard laboratory diet and water ad libitum in a controlled environment.
As the accepted anesthetic mixture, animals received 35 mg/kg b.w. ketamine and 0.25 mg/kg body weight midazolam by intramuscular injection. Diffuse sTBI was induced according to the “weight drop” impact acceleration model set up by Marmarou et al. J. Neurosurg. 1994, 80: 291-300. This model causes diffuse axonal injury and it is able to reproduce the physical and mechanical characteristics of the diffuse TBI in humans.
Severe TBI was induced by dropping a 450 g weight from 2 meters height onto the rat head protected by a helmet (metal disk previously fixed on the skull using dental cement) in order to uniformly distribute the mechanical force to the brain. Rats were placed prone on a bed of specific polyurethane foam inserted in a special container; this foam dissipates the major part of the potential energy (deriving from the mechanical forces) and prevents any rebound of the animal after the impact that could produce spinal damages.
After 2 or 7 days from TBI induction, rats were anesthetized again and then immediately sacrificed. These time points are coincident with the worst biochemical derangement (2 days) or, in the case of a mildly injured brain, with a full metabolic recovery (7 days).
The drug treatment consisted in a subcutaneous injection of 0.5 ml of LMW-DS (ILB®, Tikomed, Viken, Sweden, WO 2016/076780) and administered at 3 different concentrations (1, 5 and 15 mg/kg body weight), according to the schematic protocol described below. Sham-operated animals underwent the same procedure of anesthesia but TBI and were used as the control group.
Rats subjected to sTBI and receiving a single administration of LMW-DS after 30 minutes post-TBI, with sacrifice at 2 days post-TBI. Animals were divided in the following subgroups: • 1. 12 animals subjected to sTBI and treated with 1 mg/kg b.w. LMW-DS • 2. 12 animals subjected to sTBI and treated with 5 mg/kg b.w. LMW-DS • 3. 12 animals subjected to sTBI and treated with 15 mg/kg b.w. LMW-DS
Rats subjected to sTBI and receiving a single administration of LMW-DS after 30 minutes post-TBI, with sacrifice at 7 days post-TBI. Animals were divided in the following subgroups: • 1. 12 animals subjected to sTBI and treated with 1 mg/kg b.w. LMW-DS • 2. 12 animals subjected to sTBI and treated with 5 mg/kg b.w. LMW-DS • 3. 12 animals subjected to sTBI and treated with 15 mg/kg b.w. LMW-DS
Rats (n = 12) subjected to sTBI and receiving repeated administrations of the maximal dose of LMW-DS (15 mg/kg b.w.) after 30 minutes, 3 days and 5 days post-TBI, with sacrifice at 7 days post-TBI. Four additional rats were used for the histo-morphological studies. Total rats in this group: n=16
To minimize metabolite loss, an in vivo craniectomy was performed in all animals during anesthesia. The rat skull was carefully removed, the brain was exposed, sharply cut along the sagittal fissure and the two hemispheres were separated. The hemispheres dedicated to biochemical analyses were freeze-clamped by aluminum tongues pre-cooled in liquid nitrogen and then immersed in liquid nitrogen. The freeze-clamping procedure was introduced to accelerate freezing of the tissue, thus minimizing potential metabolite loss.
Tissue homogenization for metabolite analyses was effected as described below. After the wet weight (w.w.) determination, the frozen hemispheres were placed into 7 ml of ice-cold, nitrogen-saturated, precipitating solution (1:10 w/v) composed by CH3CN + 10 mM KH2PO4, pH 7.40, (3:1; v:v), and the homogenization was performed using an Ultra-Turrax homogenizer set at 24,000 rpm/min (Janke & Kunkel, Staufen, Germany). […]

[1] = 15 mg/kg, 7 d post-sTBI, adimensional ratio

Substance: sodium salt of dextran sulfate [LMW-DS]
- GDP (15 mg/kg, 2 d post-sTBI): 194.61 ± 26.88 nmol/g w.w.
- GDP Glucose (15 mg/kg, 2 d post-sTBI): 84.24 ± 37.54 nmol/g w.w.
- GMP (15 mg/kg, 2 d post-sTBI): 178.88 ± 22.46 nmol/g w.w.
- GSH (15 mg/kg, 2 d post-sTBI): 2418.94 ± 352.75 nmol/g w.w.
- GTP (15 mg/kg, 2 d post-sTBI): 179.07 ± 18.89 nmol/g w.w.
- GUANINE (15 mg/kg, 2 d post-sTBI): 1.61 ± 0.40 nmol/g w.w.
- GUANOSINE (15 mg/kg, 2 d post-sTBI): 24.35 ± 4.05 nmol/g w.w.
- HYPOXANTHINE (15 mg/kg, 2 d post-sTBI): 6.82 ± 1.12 nmol/g w.w.
- IMP (15 mg/kg, 2 d post-sTBI): 68.95 ± 12.98 nmol/g w.w.
- INOSINE (15 mg/kg, 2 d post-sTBI): 142.91 ± 18.63 nmol/g w.w.
- MDA (15 mg/kg, 2 d post-sTBI): 18.28 ± 2.98 nmol/g w.w.
- Malonyl-CoA (15 mg/kg, 2 d post-sTBI): 28.73 ± 6.09 nmol/g w.w.
- NADH (15 mg/kg, 2 d post-sTBI): 10.83 ± 1.58 nmol/g w.w.
- NADPH (15 mg/kg, 2 d post-sTBI): 8.93 ± 0.74 nmol/g w.w.
- NADP^+ (15 mg/kg, 2 d post-sTBI): 17.75 ± 4.06 nmol/g w.w.
- NAD^+ (15 mg/kg, 2 d post-sTBI): 475.32 ± 80.91 nmol/g w.w.
- NO2 (15 mg/kg, 2 d post-sTBI): 72.29 ± 8.71 nmol/g w.w.
- NO3 (15 mg/kg, 2 d post-sTBI): 56.50 ± 12.30 nmol/g w.w.
- UDP (15 mg/kg, 2 d post-sTBI): 80.00 ± 8.20 nmol/g w.w.
- UDP-Gal (15 mg/kg, 2 d post-sTBI): 116.34 ± 9.71 nmol/g w.w.
- UDP-GalNac (15 mg/kg, 2 d post-sTBI): 22.37 ± 3.30 nmol/g w.w.
- UDP-Glc (15 mg/kg, 2 d post-sTBI): 43.41 ± 6.43 nmol/g w.w.
- UDP-GlcNac (15 mg/kg, 2 d post-sTBI): 108.74 ± 9.90 nmol/g w.w.
- UMP (15 mg/kg, 2 d post-sTBI): 147.53 ± 20.38 nmol/g w.w.
- URACIL (15 mg/kg, 2 d post-sTBI): 15.55 ± 3.04 nmol/g w.w.
- URIC ACID (15 mg/kg, 2 d post-sTBI): 26.00 ± 5.33 nmol/g w.w.
- URIDINE (15 mg/kg, 2 d post-sTBI): 87.55 ± 15.41 nmol/g w.w.
- UTP (15 mg/kg, 2 d post-sTBI): 108.21 ± 16.99 nmol/g w.w.
- XANTHINE (15 mg/kg, 2 d post-sTBI): 13.87 ± 1.44 nmol/g w.w.
- β-PSEUDOURIDINE (15 mg/kg, 2 d post-sTBI): 7.84 ± 1.57 nmol/g w.w.
- NAD^+/NADH (15 mg/kg, 2 d post-sTBI, adimensional ratio): 44.40 ± 7.67
- ADENOSINE (15 mg/kg, 7 d post-sTBI): 55.95 ± 41.44 nmol/g w.w.
- ADP (15 mg/kg, 7 d post-sTBI): 276.83 ± 36.87 nmol/g w.w.
- ADP-Ribose (15 mg/kg, 7 d post-sTBI): 19.21 ± 4.82 nmol/g w.w.
- AMP (15 mg/kg, 7 d post-sTBI): 50.50 ± 3.97 nmol/g w.w.
- ASCORBIC ACID (15 mg/kg, 7 d post-sTBI): 2853.35 ± 343.64 nmol/g w.w.
- ATP (15 mg/kg, 7 d post-sTBI): 1846.63 ± 148.55 nmol/g w.w.
- Acetyl-CoA (15 mg/kg, 7 d post-sTBI): 38.60 ± 6.57 nmol/g w.w.
- CDP choline (15 mg/kg, 7 d post-sTBI): 10.06 ± 3.23 nmol/g w.w.
- CMP (15 mg/kg, 7 d post-sTBI): 47.10 ± 20.04 nmol/g w.w.
- CREATININE (15 mg/kg, 7 d post-sTBI): 5.23 ± 0.92 nmol/g w.w.
- CTP (15 mg/kg, 7 d post-sTBI): 96.44 ± 25.54 nmol/g w.w.
- CYTIDINE (15 mg/kg, 7 d post-sTBI): 33.06 ± 11.63 nmol/g w.w.
- CYTOSINE (15 mg/kg, 7 d post-sTBI): 13.87 ± 2.98 nmol/g w.w.
- CoA-SH (15 mg/kg, 7 d post-sTBI): 64.93 ± 8.33 nmol/g w.w.
- GDP (15 mg/kg, 7 d post-sTBI): 122.07 ± 13.95 nmol/g w.w.
- GDP Glucose (15 mg/kg, 7 d post-sTBI): 101.65 ± 11.89 nmol/g w.w.
- GMP (15 mg/kg, 7 d post-sTBI): 41.55 ± 19.66 nmol/g w.w.
- GSH (15 mg/kg, 7 d post-sTBI): 2390.89 ± 315.16 nmol/g w.w.
- GTP (15 mg/kg, 7 d post-sTBI): 479.98 ± 43.64 nmol/g w.w.
- GUANINE (15 mg/kg, 7 d post-sTBI): 5.27 ± 2.24 nmol/g w.w.
- GUANOSINE (15 mg/kg, 7 d post-sTBI): 20.91 ± 4.36 nmol/g w.w.
- HYPOXANTHINE (15 mg/kg, 7 d post-sTBI): 10.21 ± 2.97 nmol/g w.w.
- IMP (15 mg/kg, 7 d post-sTBI): 74.70 ± 19.13 nmol/g w.w.
- INOSINE (15 mg/kg, 7 d post-sTBI): 104.41 ± 11.72 nmol/g w.w.
- MDA (15 mg/kg, 7 d post-sTBI): 6.23 ± 1.03 nmol/g w.w.
- Malonyl-CoA (15 mg/kg, 7 d post-sTBI): 7.98 ± 1.44 nmol/g w.w.
- NADH (15 mg/kg, 7 d post-sTBI): 11.65 ± 1.63 nmol/g w.w.
- NADPH (15 mg/kg, 7 d post-sTBI): 6.66 ± 1.55 nmol/g w.w.
- NADP^+ (15 mg/kg, 7 d post-sTBI): 23.75 ± 8.72 nmol/g w.w.
- NAD^+ (15 mg/kg, 7 d post-sTBI): 491.52 ± 69.61 nmol/g w.w.
- NO2 (15 mg/kg, 7 d post-sTBI): 110.72 ± 23.99 nmol/g w.w.
- NO3 (15 mg/kg, 7 d post-sTBI): 161.99 ± 27.67 nmol/g w.w.
- UDP (15 mg/kg, 7 d post-sTBI): 37.91 ± 5.33 nmol/g w.w.
- UDP-Gal (15 mg/kg, 7 d post-sTBI): 137.57 ± 9.46 nmol/g w.w.
- UDP-GalNac (15 mg/kg, 7 d post-sTBI): 17.91 ± 5.13 nmol/g w.w.
- UDP-Glc (15 mg/kg, 7 d post-sTBI): 62.97 ± 12.80 nmol/g w.w.
- UDP-GlcNac (15 mg/kg, 7 d post-sTBI): 67.47 ± 23.34 nmol/g w.w.
- UMP (15 mg/kg, 7 d post-sTBI): 181.82 ± 35.22 nmol/g w.w.
- URACIL (15 mg/kg, 7 d post-sTBI): 15.92 ± 3.27 nmol/g w.w.
- URIC ACID (15 mg/kg, 7 d post-sTBI): 8.60 ± 2.05 nmol/g w.w.
- URIDINE (15 mg/kg, 7 d post-sTBI): 134.04 ± 31.76 nmol/g w.w.
- UTP (15 mg/kg, 7 d post-sTBI): 127.42 ± 22.32 nmol/g w.w.
- XANTHINE (15 mg/kg, 7 d post-sTBI): 12.71 ± 3.60 nmol/g w.w.
- β-PSEUDOURIDINE (15 mg/kg, 7 d post-sTBI): 63.77 ± 11.83 nmol/g w.w.
- ATP/ADP [1]: 6.76 ± 0.86
- NAD+/NADH [1]: 42.51 ± 5.26
- whole brain NAA (5 or 15 mg/kg b.w., 2 days post impact): significantly higher than values found in sTBI rats
- ATP levels, % lower than the value of controls (7 days post impact): 16%
- NAA concentration, % lower than the value of controls (7 days post impact): 16%
- whole brain NAA (increasing single doses or repeat maximal dose, 7 days post sTBI): dose dependent increase
